# Assay results: article PMC2886105, “Assay Strategies for the Discovery and Validation of Therapeutics Targeting Brugia pahangi Hsp90” (PLoS Neglected Tropical Diseases, 2010)
# Like-named read-outs stand apart in the source and are kept apart here.
# Assays:
# Brugia Hsp90 = biological target: T1, Brugia Hsp90 (Brugia pahangi, UniProt O61998); test: biochemical; assay type: binding; conditions: for dose-dependent reduction of the FP signal: Figure 3B, Brugia extract; for IC50: 6 nM cy3B-GA, 2 µg/well Brugia extract, 4°C, 24 h
# T1 construct: from tissue; host or cells: whole adult B. pahangi worms from infected gerbils, ground and re-suspended in HFB assay buffer
# Method: FP measurements were performed using black 96-well microtiter plates (Corning #3650), where both the excitation and the emission occurred from the top of the well, on an Analyst GT plate reader (Molecular Devices, Sunnyvale, CA). An integration time of 100 ms was used, and Z height was set at 3 mm (middle). The excitation polarization was set at static, and the emission polarization was set at dynamic. […] All FP values were expressed in millipolarization (mP) units. The mP values were calculated using the equation mP = 1000× [(IS – ISB) – (IP – IPB)]/[(IS – ISB) + (IP – IPB)], where IS is the parallel emission intensity measurement, IP is the perpendicular emission intensity sample measurement, and ISB and […] are the corresponding measurements for background (buffer). Total fluorescence was determined as 2×IP+IS.
# For the competition studies, FP assays were performed as previously reported. […] Drugs were added to triplicate wells. […] Plates were incubated on a shaker at 4°C, and polarization values measured at 8 to 24 h.
# (§1) Figure 3 Brugia assay validation. […] Ligand binding was plotted against the log10 inhibitor concentration, and EC50 values were calculated using a nonlinear least-square curve-fitting program in Prism 4.0. Points, mean; bars, s.d. […] Graphs show mean and SD of Mf output over a three-day period from six female worms per group.
# adult female B. pahangi [1] = test: Mf output by adult female B. pahangi cultured in vitro with drug; set-up: species or system Brugia pahangi; conditions: GA at 1 µM; PU-H71 and PU-DZ8 at 5 and 10 µM; three-day period
# Method: (§2) Mf output by individual female worms was assessed at two time points and adult worms were examined microscopically and their condition noted. Results are expressed as mean Mf output over a three-day period ± SD. Statistical significance between groups was calculated using the Mann Whitney test with P values <0.05 being considered significant.
# as §1
# B. pahangi Mf = test: Mortality of purified B. pahangi Mf incubated in drug; set-up: species or system Brugia pahangi; conditions: day 7
# Method: as §2
# In separate experiments, Mf were purified from the peritoneal cavity of infected animals and incubated alone in each of the drugs.
# adult female B. pahangi [2] = test system: adult female B. pahangi; set-up: method as in PMID 15862576; conditions: adult worms ref 14; cited from earlier work
# adult B. pahangi = test: Condition and activity of adult B. pahangi worms in vitro; set-up: species or system Brugia pahangi
# Method: Mf output by individual female worms was assessed at two time points and adult worms were examined microscopically and their condition noted. Results are expressed as mean Mf output over a three-day period ± SD.
compound,measurement,setting,value
Nc1ncnc2c1ncn2[C@@H]1O[C@H](COP(=O)(O)OP(=O)(O)O)[C@@H](O)[C@H]1O [ADP],dose-dependent reduction of the FP signal,Brugia Hsp90,dose-dependent reduction of the FP signal
"COC1=C2C[C@@H](C)C[C@H](OC)[C@H](O)[C@@H](C)/C=C(\C)[C@H](OC(N)=O)[C@@H](OC)/C=C\C=C(/C)C(=O)NC(=CC1=O)C2=O [GA, geldanamycin]",effect on Mf release,adult female B. pahangi [1],profound effect
same,Mf dead,B. pahangi Mf; 1.0 µM,all dead
same,onset of effect on Mf output,adult female B. pahangi [2],≤ 24 h
C#CCCCn1c(Cc2cc(OC)c(OC)c(OC)c2Cl)nc2c(N)nc(F)nc21 [PU-24FCl],Selectivity ratio (Brugia IC50 / SKBr3 IC50),Brugia Hsp90,2
same,IC50,"Brugia Hsp90; Brugia IC50, Figure 4C",1410 ± 10 nM
CC(C)NCCCn1c(Sc2cc3c(cc2I)OCO3)nc2c(N)ncnc21 [PU-H71],effect on Mf release,adult female B. pahangi [1],profound effect
same,Mf dead,B. pahangi Mf; 5.0 µM,approximately 80%
same,Mf dead,B. pahangi Mf; 10 µM,100%
same,activity of adult worms,adult B. pahangi; 5.0 µM,markedly less active
same,activity of adult worms,adult B. pahangi; 10 µM,markedly less active
same,concentration of drug required to kill adult Brugia,adult B. pahangi; in vitro,2.5 µM
same,IC50,"Brugia Hsp90; Brugia IC50, Figure 4C",80.8 ± 0.5 nM
same,IC50,"Brugia Hsp90; IC50, inhibition of the binding of cy3B-GA to Brugia Hsp90, values in text for Figure 3C",80 nM
CC(C)NCCCn1c(Sc2cc3c(cc2I)OCC3)nc2c(N)ncnc21 [PU-WS10],Selectivity ratio (Brugia IC50 / SKBr3 IC50),Brugia Hsp90; Brugia vs human SKBr3 Hsp90 species,9
CO[C@@H]1[C@@H](OC(N)=O)[C@@H](O)[C@H](Oc2ccc3c(O)c(NC(=O)c4ccc(O)c(CC=C(C)C)c4)c(=O)oc3c2C)OC1(C)C [novobiocin],EC50,Brugia Hsp90,> 10000 nM
C[C@@H]1C[C@H]2O[C@@H]2/C=C\C=C\C(=O)Cc2c(Cl)c(O)cc(O)c2C(=O)O1 [radicicol],EC50,Brugia Hsp90,75.4 nM
ivermectin,dose-dependent reduction of the FP signal,Brugia Hsp90,no such effect
